Reference: US9119821B2, “Use of methionine sulfoximine to treat acute liver failure and other diseases caused by an inflammatory cytokine response” (priority 2010, dated 2015)
Like-named read-outs stand apart in the source and are kept apart here.

How the values were obtained:
IFN-γ = tested on: IFN-γ
Excerpt: FIG. 6A, FIG. 6B, and FIG. 6C illustrate ELISA quantitation cytokine levels in plasma from LPS/D-GalN treated mice. The time zero values show the levels of each cytokine in negative control mice, not treated with LPS/D-GalN but injected with either saline (n=7) or MSO (n=7) three hours prior to be killed. […] For each cytokine, open circles represent cytokine levels in plasma isolated from mice pretreated with saline, and open diamonds represent cytokine levels in plasma isolated from mice pretreated with MSO prior to LPS/D-GalN treatment. FIG. 6A illustrates TNF-α levels. FIG. 6B illustrates IFN-γ levels. FIG. 6C illustrates IL-6 levels; and
(§1) Tissue and plasma were collected from male mice, which were divided into two groups. One group was injected with saline three hours prior to LPS/D-GalN injections. The second group was given MSO three hours prior to being injected with LPS/D-GalN. Control mice (t=0) were treated with MSO or saline for 3 hours and then euthanized (not exposed to LPS/D-GalN). After LPS/D-GalN injection at time zero, tissue and plasma samples were collected at one-hour time intervals from 1 to 5 hours.
Plasma was obtained by transferring blood to plasma separator tubes containing lithium heparin (BD Microtainer tubes). Plasma samples were immediately frozen on dry ice and stored at −80° C.
TNF-α, IFN-γ, and IL-6 ELISA kits were obtained from eBioscience, and experiments were performed using the manufacturer's guidelines for 96-well plate experiments. One hundred microliters of plasma was used per well.

[1] = target: γ-glutamylcysteine synthetase (GGCS) (Mus musculus, UniProt P97494); settings: liver extracts from LPS/D-GalN treated mice; 50 mg/kg; data not shown
Protocol: as §1
To analyze enzyme activities liver homogenates were prepared from liver tissue excised and immediately homogenized in ice-cold buffer consisting of 250 mM sucrose, 10 mM Tris and 0.1 mM EGTA with protease inhibitor cocktail (Sigma #P8340). The homogenized tissue was centrifuged at 2375×g for 5 min. […]
Glutamine synthetase was assayed as described by Meister, A. Glutamine synthetase from mammalian tissues. […] The reaction with the substrates glutamine and hydroxylamine was stopped using ferric chloride stop solution (0.37 M FeCl3, 0.67 M HCl, 0.20 M TCA) and the colorimetric product formed—γ-glutamyl hydroxamate—was measured at 535 nm. The absorbance values were converted to activities by comparison to a standard curve of pure glutamyl hydroxamate (a generous gift from Arthur J. Cooper, Department of Biochemistry and Molecular Biology, New York Medical College).

MLP 29 cells = assay: Flow cytometry of apoptosis induced by TNF-α plus actinomycin D; type: cell-based, mouse
Protocol: Output of multiparametric FACS analyses. Mouse liver progenitor cells, MLP 29, are incubated for one hour with either no addition (first lane, FIG. 3C(a)), 9 mM MSO (second lane, FIG. 3C(b)), or 9 mM BSO (third lane, FIG. 3C(c)), then exposed for 10 hours to either no addition—(BAS, first column), TNF-α plus actinomycin D (second column), or actinomycin D alone (third column). Viable cells (V) are delimited by the quadrant. Apoptotic cells display mitochondrial depolarization (reduced TMRM staining) and/or expose phosphatidylserine on their surface (increased Annexin V-FITC staining). Propidium iodide-positive, i.e. dead cells (PI), are evaluated on a PI vs TMRM diagram (not shown); these cells are excluded from the reported plots, but the percentage of propidium iodide positive (i.e. dead) cells is shown in each box (PI), as is the percentage of viable cells (V);
Samples were analyzed on a FACSCalibur flow cytometer (Becton Dickinson, San Diego, Calif.). Data acquisition was performed using CellQuest software and data analysis with WinMD1 software. Each experiment was repeated at least four times.

[2] = tested on: CD1 mice injected with Jo2 antibody; settings: mouse, in vivo
Protocol: Animals were divided into two groups. Group one animals consisted of both male and female mice injected with LPS and D-GalN to induce hepatic failure. Survival was monitored post LPS/D-GalN administration and the time of injection was considered to be zero hour (t=0). Group two animals consisted of mice injected with MSO three hours prior to LPS and D-GalN administration. […] MSO (50 mg/kg body weight, Sigma #M5379) was also prepared in saline and administered IP. For analysis of the effect of MSO treatment on the cell death pathway activated by the Fas ligand, mice were pre-treated with MSO as described above, and at time zero were injected with Jo2 antibody ([…]).
Animals were monitored continuously post LPS/D-GalN or Jo2 administration. […] The time of death was recorded as hours after LPS/D-GalN injection. Fisher's exact test was used to determine two-tailed p values for the statistical between the treated and untreated groups.

[3] = tested on: 40 different mouse cytokines
Protocol: as §1
For experiments analyzing plasma cytokines, the male mice from the groups described above were anesthetized using Avertin (solution of 15.5 mis of tert-amyl alcohol—Sigma #240486 and 25 g of 2-2-2 tribromoethanol—Sigma #T48402) and blood was collected by cardiac puncture. Plasma was obtained by transferring blood to plasma separator tubes containing lithium heparin (BD Microtainer tubes). Plasma samples were immediately frozen on dry ice and stored at −80° C.
Mouse cytokine array kits (Proteome Profiler Arrays—cat #ARY006) were obtained from R&D Systems and used according to the manufacturer's guidelines. Each array, which consisted of a nitrocellulose membrane spotted with 40 different mouse cytokines, was tested with two hundred microliters of plasma from one animal. Each condition was duplicated—two mice for each group. Control blots were from plasma collected from two untreated mice (not injected with LPS/D-GalN and/or MSO). For untreated and MSO-treated groups, plasma was collected at either 1 hour or 3 hours after LPS/D-GalN administration. The blots were developed using the Immun-Star WesternC Kit (BIO-RAD cat #170-5070) on a BIO-RAD imager. The corresponding Quantity One software of the BIO-RAD imager was used to quantify the signal obtained on the blots.

[4] = one hour after LPS/D-GalN, versus LPS/D-GalN alone
[5] = three hours after LPS/D-GalN, same reduction in LPS/D-GalN animals without MSO

Sequence of γ-glutamylcysteine synthetase (GGCS) (P97494 whole entry): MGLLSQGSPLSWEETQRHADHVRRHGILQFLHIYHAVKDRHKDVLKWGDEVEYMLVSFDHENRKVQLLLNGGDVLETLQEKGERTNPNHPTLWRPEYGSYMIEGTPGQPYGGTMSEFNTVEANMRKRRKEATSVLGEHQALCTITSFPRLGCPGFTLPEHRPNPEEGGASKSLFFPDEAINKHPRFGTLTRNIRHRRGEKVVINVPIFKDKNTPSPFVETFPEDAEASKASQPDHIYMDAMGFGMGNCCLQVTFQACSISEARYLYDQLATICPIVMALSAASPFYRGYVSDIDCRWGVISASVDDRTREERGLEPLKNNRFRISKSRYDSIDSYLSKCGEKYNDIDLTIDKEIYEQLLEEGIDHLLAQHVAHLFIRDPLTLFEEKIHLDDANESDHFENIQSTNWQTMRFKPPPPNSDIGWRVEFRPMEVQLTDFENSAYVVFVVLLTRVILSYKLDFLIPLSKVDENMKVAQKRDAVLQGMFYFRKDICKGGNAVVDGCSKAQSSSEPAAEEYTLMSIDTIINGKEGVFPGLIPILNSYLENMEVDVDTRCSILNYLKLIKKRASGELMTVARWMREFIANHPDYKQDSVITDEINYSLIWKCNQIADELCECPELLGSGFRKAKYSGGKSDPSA
Sequence of γ-glutamylcysteine synthetase (GGCS) (O09172 whole entry partner): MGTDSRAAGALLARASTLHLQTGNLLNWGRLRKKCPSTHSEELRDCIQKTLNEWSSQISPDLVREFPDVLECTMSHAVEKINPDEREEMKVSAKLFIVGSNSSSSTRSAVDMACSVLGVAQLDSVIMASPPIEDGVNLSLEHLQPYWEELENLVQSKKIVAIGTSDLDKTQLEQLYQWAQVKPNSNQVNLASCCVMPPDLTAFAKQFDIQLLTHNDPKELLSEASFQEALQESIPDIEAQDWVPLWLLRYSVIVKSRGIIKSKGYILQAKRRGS

CS(=N)(=O)CC[C@H](N)C(=O)O (some centres unmarked) [MSO, methionine sulfoximine]
plasma IFN-γ level (IFN-γ; 1 hour after LPS/D-GalN, without MSO 0.84±0.25): 0.19 ± 0.05 pg/mL
plasma IFN-γ level (IFN-γ; 4 hours after LPS/D-GalN, without MSO 41±11, p 0.01): 5.0 ± 3.0 pg/mL
GGCS activity versus saline pre-treated mice [1]: same GGCS activities as extracts from mice pre-treated with saline
rescue of cells from apoptosis induced by TNF-α (MLP 29 cells): neither MSO nor BSO could rescue cells
effect on survival after Fas pathway induction [2]: no effect on survival
reduction of IL-6 in plasma [3, 4]: > 50%
reduction of TNF-α in plasma [3, 4]: > 50%
I-TAC in plasma ([3]; three hours after LPS/D-GalN): not detected
JE in plasma ([3]; three hours after LPS/D-GalN): either reduced or not detected
KC values ([3]; three hours after LPS/D-GalN): same as in LPS/D-GalN animals
M-CSF values ([3]; three hours after LPS/D-GalN): same for all three groups
MCP-5 in plasma ([3]; three hours after LPS/D-GalN): increased
MIG in plasma ([3]; three hours after LPS/D-GalN): not detected
MIP-1a in plasma ([3]; three hours after LPS/D-GalN): either reduced or not detected
MIP-1b in plasma ([3]; three hours after LPS/D-GalN): either reduced or not detected
MIP-2 in plasma ([3]; three hours after LPS/D-GalN): increased
RANTES in plasma ([3]; three hours after LPS/D-GalN): either reduced or not detected
TIMP-1 values ([3]; three hours after LPS/D-GalN): reduced to approximately control values
TNF-α induction by LPS/D-GalN ([3]; three hours after LPS/D-GalN): abrogated
induction of IFN-γ by LPS/D-GalN ([3]; three hours after LPS/D-GalN): abolished
induction of IL-1ra by LPS/D-GalN ([3]; three hours after LPS/D-GalN): abolished
induction of IL-6 by LPS/D-GalN ([3]; three hours after LPS/D-GalN): abolished
induction of IL-16 by LPS/D-GalN ([3]; three hours after LPS/D-GalN): abolished
induction of IL-23 by LPS/D-GalN ([3]; three hours after LPS/D-GalN): abolished
reduction of IL-1a level ([3]; three hours after LPS/D-GalN): more than 50%
reduction of IP-10 ([3]; three hours after LPS/D-GalN): more than 50%
number of elevated cytokines reduced by pretreatment ([3]; three hours after LPS/D-GalN, 22 of the 40 cytokines elevated): 20
reduction in C5a [3, 5]: 10-20%
reduction in sICAM [3, 5]: 10-20%
